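A five-concentration, 48-hour dose response in 96-well plates underlies each endpoint, interpolated linearly between surrounding concentrations. GI50: concentration for 50% inhibition of growth. At the TGI there is no net growth.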
How the values were obtained:
Assay in all cases: NCI-60 cell line screen, 48 h
A498 renal = tested on: A498 renal
ACHN renal = tested on: ACHN renal
NCI-H522 lung = tested on: NCI-H522 lung
OVCAR-3 ovarian = tested on: OVCAR-3 ovarian
SF-268 CNS = tested on: SF-268 CNS
SK-MEL-28 melanoma = tested on: SK-MEL-28 melanoma
SK-OV-3 ovarian = tested on: SK-OV-3 ovarian
T-47D breast = tested on: T-47D breast
UO-31 renal = tested on: UO-31 renal
SW-620 colon = tested on: SW-620 colon

| SMILES | TGI (A498 renal) [µM] | TGI (ACHN renal) | TGI (NCI-H522 lung) [µM] | TGI (OVCAR-3 ovarian) | TGI (SF-268 CNS) | TGI (SK-MEL-28 melanoma) | TGI (SK-OV-3 ovarian) | TGI (T-47D breast) | TGI (UO-31 renal) | TGI (SW-620 colon) | GI50 (OVCAR-3 ovarian) | GI50 (SF-268 CNS) | GI50 (SW-620 colon) | GI50 (T-47D breast) | GI50 (A498 renal) [nM] | GI50 (ACHN renal) | GI50 (NCI-H522 lung) [nM] | GI50 (SK-MEL-28 melanoma) | GI50 (UO-31 renal) | GI50 (SK-OV-3 ovarian) |
| --- | --- | --- | --- | --- | --- | --- | --- | --- | --- | --- | --- | --- | --- | --- | --- | --- | --- | --- | --- | --- |
| N#Cc1c(Cl)c2cc([N+](=O)[O-])ccc2n2c1nc1ccccc12 | > 55.6 | 13.6 µM | 4.71 | 29.6 µM | 13.6 µM | 30 µM | 54.5 µM | 4.8 µM | 6.82 µM |  |  |  |  |  |  |  |  |  |  |  |
| C=C(C)C(=O)OC1CCC2(C)C(CCC3C2CCC2(C)C(c4ccc(=O)oc4)CC4OC432)C1 (stereo not drawn) | 21.8 |  | 8.78 | 15.1 µM | 31.9 µM | 44.5 µM | 99.8 µM |  | 35.8 µM | 25.1 µM |  |  |  |  |  |  |  |  |  |  |
| COc1cc(/C=C2\CCCC3=C2NC(C)=NC3c2cc(OC)c(OC)c(OC)c2)cc(OC)c1OC (stereo not drawn) |  |  |  | > 100 µM | > 100 µM |  |  | > 100 µM |  | > 100 µM | 2650 nM | 1.88 µM | 1.45 µM | 3.25 µM |  |  |  |  |  |  |
| O=S1(=O)N(CCNc2nccc(-c3c(-c4cccc(O)c4)nc4sccn34)n2)CCN1Cc1ccccc1 | 4.35 | 48.2 µM | 14.9 | > 50 µM | > 50 µM | > 50 µM |  | 27 µM | 39.3 µM | > 50 µM | 6230 nM | 15.3 µM | 7.87 µM | 5.16 µM | 1780 | 3.83 µM | 2980 | 417 nM | 3010 nM |  |
| Cc1nc2ccccc2n1C(=O)c1c(F)c(F)c(F)c(F)c1F | 57 | 60.7 µM | 10.9 | 71.6 µM | > 100 µM | 82.9 µM | 62 µM | > 100 µM | 33.9 µM | 49.8 µM |  |  |  |  |  |  |  |  |  |  |
| Cc1cc(O)c(C(C)(C)C)cc1Sc1cc(C(C)(C)C)c(O)cc1C | 6.29 | 10 µM | 5.62 | 5.45 µM | 12.9 µM | 3.09 µM | 13.2 µM | 13.4 µM | 8.25 µM | 13.7 µM | 2230 nM | 3.3 µM | 3.65 µM | 2.09 µM | 2210 | 2.89 µM | 2730 | 1630 nM | 2070 nM | 3.56 µM |
| Clc1ccccc1/C=C/c1cscn1 | > 100 | > 100 µM | > 100 | > 100 µM | > 100 µM | > 100 µM | > 100 µM |  | > 100 µM |  |  |  |  |  |  |  |  |  |  |  |
| C=CC1(C)CCC2=C(CCC3C(C)(C(=O)OC)CCCC23C)C1=O (stereo not drawn) | 28.4 | 31.9 µM | 29.3 | 35.3 µM | 34.9 µM |  | 34.4 µM |  | 42.8 µM | 33.5 µM |  |  |  |  |  |  |  |  |  |  |
| O=C(N/N=C\c1cccc(O)c1)c1ccncc1 | > 100 | > 100 µM | > 100 | > 100 µM | > 100 µM | > 100 µM |  | > 100 µM | > 100 µM | > 100 µM |  |  |  |  |  |  |  |  |  |  |
| CCOC(=O)C(O)(NC(=O)c1ccc(F)cc1)C(F)(F)F (stereo not drawn) |  | > 100 µM | > 100 | > 100 µM | > 100 µM | > 100 µM | > 100 µM | > 100 µM | > 100 µM | > 100 µM |  |  |  |  |  |  |  |  |  |  |
| O=C1NN(C2=NNC3(C(=O)N2)c2ccccc2-c2ccccc23)C(c2ccccc2)=N/C1=C/c1ccc(O)cc1 |  | > 150 µg/mL |  | > 150 µg/mL | > 150 µg/mL | > 150 µg/mL | > 150 µg/mL | > 150 µg/mL | > 150 µg/mL | > 150 µg/mL | 55.1 µg/mL | 49.9 µg/mL | 82.5 µg/mL | 27 µg/mL |  | 41.7 µg/mL |  | 83 µg/mL | 48.9 µg/mL | 25.6 µg/mL |

Reference: PubChem BioAssay (NCI)
